From ChEMBL document CHEMBL5512665, “A CARM1 Inhibitor Potently Suppresses Breast Cancer Both In Vitro and In Vivo” (J Med Chem, 2024)
Active and inactive are the calls of the source. The rule behind the calls is not given here.

Assays:
MCF7 [1] = experiment: Antitumor activity against human MCF7 cells xenografted in BALB/C mouse assessed as downregulation of C-Myc gene expression at 25 mg/kg,ip administrated every other day for 29 days by RT-qPCR analysis; assay type: functional, organism-based; settings: time 29.0 day
4T1 [2] = experiment: Potentiation of etoposide induced antiproliferative activity against mouse 4T1 cells assessed as upregulation of IFNalpha gene expression at 2.5 uM in presence of etoposide by RT-qPCR analysis; assay type: functional, cell-based
MCF7 [3] = experiment: Antitumor activity against human MCF7 cells xenografted in BALB/C mouse assessed as upregulation of IFIT1 gene expression at 25 mg/kg,ip administrated every other day for 29 days by RT-qPCR analysis; assay type: functional, organism-based; settings: time 29.0 day
[4] = Toxicity in BALB/C mouse implanted with mouse 4T1 cells assessed as change in spleen morphology at 25 mg/kg,ip administrated daily for 14 days; assay type: organism-based; settings: in vivo, 336 h, time 14 day
[5] = Toxicity in BALB/C mouse xenografted with human MCF7 cells assessed as change in lung morphology at 50 mg/kg,ip administrated every other day for 29 days; assay type: organism-based; settings: in vivo, 696 h, time 29 day
MCF7 [6] = experiment: Synergistic antitumor activity against human MCF7 cells xenografted in BALB/C mouse assessed as reduction in tumor size at 25 mg/kg,ip administrated every other day for 15 days in presence of 5 mg/kg tamoxifen oral administration; assay type: functional, organism-based; settings: time 15.0 day
[7] = Toxicity in BALB/C mouse xenografted with human MCF7 cells assessed as change in spleen morphology at 25 mg/kg,ip administrated every other day for 29 days; assay type: organism-based; settings: in vivo, 696 h, time 29 day
MCF7 [8] = experiment: Potentiation of etoposide induced antiproliferative activity against human MCF7 cells assessed as inhibition of cell growth at 2.5 uM incubated for 7 days in presence of etoposide by celltiter 96 aqueous one solution cell proliferation assay; assay type: functional, cell-based; settings: time 7.0 day
MCF7 [9] = experiment: Antitumor activity against human MCF7 cells xenografted in BALB/C mouse assessed as reduction of tumor size at 50 mg/kg,ip administrated every other day for 29 days; assay type: functional, organism-based; settings: time 29.0 day
[10] = Toxicity in BALB/C mouse xenografted with human MCF7 cells assessed as change in body weight at 50 mg/kg,ip administrated every other day for 29 days; assay type: organism-based; settings: in vivo, 696 h, time 29 day
4T1 [11] = experiment: Potentiation of etoposide induced antitumor activity against mouse 4T1 cells implanted in BALB/C mouse assessed as upregulation of ISG15 gene expression at 25 mg/kg,ip administrated daily for 12 days in presence of 8 mg/kg etoposide administration by RT-qPCR analysis; assay type: functional, organism-based; settings: time 12.0 day
MCF7 [12] = experiment: Potentiation of etoposide induced antiproliferative activity against human MCF7 cells assessed as inhibition of colony formation at 2.5 uM incubated for 10 days in presence of etoposide by crystal violet staining based analysis; assay type: functional, cell-based; settings: time 10.0 day
MCF7 [13] = experiment: Antitumor activity against human MCF7 cells xenografted in BALB/C mouse assessed as reduction of tumor weight at 25 mg/kg,ip administrated every other day for 29 days; assay type: functional, organism-based; settings: time 29.0 day
4T1 [14] = experiment: Potentiation of etoposide induced antitumor activity against mouse 4T1 cells implanted in BALB/C mouse assessed as upregulation of CD8A expression at 25 mg/kg,ip administrated daily for 12 days in presence of 8 mg/kg etoposide administration by immunohistochemical staining based analysis; assay type: functional, organism-based; settings: time 12.0 day
4T1 [15] = experiment: Potentiation of etoposide induced antitumor activity against mouse 4T1 cells implanted in BALB/C mouse assessed as reduction in tumor size at 25 mg/kg,ip administrated daily for 12 days in presence of 8 mg/kg etoposide administration; assay type: functional, organism-based; settings: time 12.0 day
T47D [16] = experiment: Induction of cell cycle arrest in human T47D cells at 2.5 to 10 uM incubated overnight by propidium iodide staining based flow cytometry; assay type: functional; settings: dose 2.5-10 µM
T47D [17] = experiment: Antiproliferative activity against human T47D cells assessed as reduction in cell growth incubated for 7 days by celltiter 96 aqueous one solution cell proliferation assay; settings: 168 h
[18] = Toxicity in BALB/C mouse xenografted with human MDA-MB-231 cells assessed as change in kidney morphology at 25 mg/kg,ip administrated daily for 11 days; assay type: organism-based; settings: in vivo, 264 h, time 11 day
[19] = Toxicity in BALB/C mouse xenografted with human MDA-MB-231 cells assessed as change in heart morphology at 25 mg/kg,ip administrated daily for 11 days; assay type: organism-based; settings: in vivo, 264 h, time 11 day
4T1 [20] = experiment: Antitumor activity against mouse 4T1 cells implanted in BALB/C mouse assessed as upregulation of CCL5 gene expression at 25 mg/kg,ip administrated daily for 14 days by RT-qPCR analysis; assay type: functional, organism-based; settings: time 14.0 day
MCF7 [21] = experiment: Antitumor activity against human MCF7 cells xenografted in BALB/C mouse assessed as inhibition of tumor growth at 25 mg/kg,ip administrated every other day for 29 days; assay type: functional, organism-based; settings: time 29.0 day
MCF7 [22] = experiment: Synergistic antiproliferative activity against human MCF7 cells assessed as inhibition of colony formation at 2.5 uM incubated for 10 days in presence of fulvestrant by crystal violet staining based analysis; assay type: functional, cell-based; settings: time 10.0 day
MCF7 [23] = experiment: Antitumor activity against human MCF7 cells xenografted in BALB/C mouse assessed as upregulation of ISG15 gene expression at 25 mg/kg,ip administrated every other day for 29 days by RT-qPCR analysis; assay type: functional, organism-based; settings: time 29.0 day
MCF7 [24] = experiment: Synergistic antitumor activity against human MCF7 cells xenografted in BALB/C mouse assessed as downregulation of C-Myc gene expression at 25 mg/kg,ip administrated every other day for 15 days in presence of 5 mg/kg tamoxifen oral administration by RT-qPCR analysis; assay type: functional, organism-based; settings: time 15.0 day
MCF7 [25] = experiment: Synergistic antiproliferative activity against human MCF7 cells assessed as downregulation of C-Myc gene expression at 2.5 uM incubated for 6 hrs in presence of tamoxifen by RT-qPCR analysis; assay type: functional, cell-based
4T1 [26] = experiment: Antitumor activity against mouse 4T1 cells implanted in BALB/C mouse assessed as downregulation of N-Myc gene expression at 25 mg/kg,ip administrated daily for 14 days by RT-qPCR analysis; assay type: functional, organism-based; settings: time 14.0 day
HCC1937 = experiment: Antiproliferative activity against human HCC1937 cells assessed as reduction in cell growth incubated for 7 days by celltiter 96 aqueous one solution cell proliferation assay; settings: HCC1937, 168 h
4T1 [27] = experiment: Antitumor activity against mouse 4T1 cells implanted in BALB/C mouse assessed as upregulation of CD8A expression at 50 mg/kg,ip administrated daily for 14 days by immunohistochemical staining based analysis; assay type: functional, organism-based; settings: time 14.0 day
[28] = Toxicity in BALB/C mouse implanted with mouse 4T1 cells assessed as change in kidney morphology at 25 mg/kg,ip administrated daily for 14 days; assay type: organism-based; settings: in vivo, 336 h, time 14 day
MCF7 [29] = experiment: Potentiation of etoposide induced antiproliferative activity against human MCF7 cells assessed as upregulation of IFNalpha gene expression at 2.5 uM in presence of etoposide by RT-qPCR analysis; assay type: functional, cell-based
4T1 [30] = experiment: Antitumor activity against mouse 4T1 cells implanted in BALB/C mouse assessed as upregulation of CD8A expression at 25 mg/kg,ip administrated daily for 14 days by immunohistochemical staining based analysis; assay type: functional, organism-based; settings: time 14.0 day
MDA-MB-231 = experiment: Antitumor activity against human MDA-MB-231 cells xenografted in BALB/C mouse assessed as inhibition of tumor growth at 25 mg/kg,ip administrated daily for 11 days; assay type: functional, organism-based; settings: time 11.0 day
[31] = Toxicity in BALB/C mouse implanted with mouse 4T1 cells assessed as change in heart morphology at 50 mg/kg,ip administrated daily for 14 days; assay type: organism-based; settings: in vivo, 336 h, time 14 day

With Cc1ccc(-c2nc(N3CCN(CCN(C)C)CC3)ncc2-c2ccoc2)cc1.Cl.Cl the Activity (MCF7 [1]) was “Active”, the Activity (4T1 [2]) was “Active” and the Activity (MCF7 [3]) was “Active”. The Activity [4] was “Non-Toxic”, the Activity [5] was “Non-Toxic” and the Activity (MCF7 [6]) was “Active”. For the same molecule, the Activity [7] was “Non-Toxic”, the Activity (MCF7 [8]) was “Active” and the Activity (MCF7 [9]) was “Active”. For the same molecule, the Activity [10] was “Non-Toxic”, the Activity (4T1 [11]) was “Active” and the Activity (MCF7 [12]) was “Active”. The Activity (MCF7 [13]) was “Active”, the Activity (4T1 [14]) was “Active” and the Activity (4T1 [15]) was “Active”. For the same molecule, the Activity (T47D [16]) was “Active”, the EC50 (T47D [17]) was 4.74 µM and the Activity [18] was “Non-Toxic”. The Activity [19] was “Non-Toxic”, the Activity (4T1 [20]) was “Active” and the Activity (MCF7 [21]) was “Active”. The Activity (MCF7 [22]) was “Active”, the Activity (MCF7 [23]) was “Active” and the Activity (MCF7 [24]) was “Active”. For the same molecule, the Activity (MCF7 [25]) was “Active”, the Activity (4T1 [26]) was “Active” and the EC50 (HCC1937) was 1.97 µM. The Activity (4T1 [27]) was “Active”, the Activity [28] was “Non-Toxic” and the Activity (MCF7 [29]) was “Active”. For the same molecule, the Activity (4T1 [30]) was “Active”, the Activity (MDA-MB-231) was “Active” and the Activity [31] was “Non-Toxic”.
